Like-named read-outs stand apart in the source and are kept apart here.
Assays:
[1] = tested on: human trypsin; assay: Inhibition of serine protease activity, trypsin, chromogenic substrate Pefachrome Try; assay type: biochemical; conditions: 2 nM human trypsin, 300 μM substrate, pH 7.5
Description: (§1) The enzymes factor Xa (fXa), thrombin (factor IIa or fIIa), and trypsin were purchased from Haematologic Technologies Inc. (Essex Junction, Vt.). The substrates Pefachromes Xa, Th, and Try were purchased from Centerchem Inc. (Stamford, Conn.). Varying concentrations of the sulfonamide compounds were incubated for 30 min at room temperature with purified activated human enzyme in the appropriate buffer. Various concentrations of the corresponding synthetic substrate were added, and activity was measured at 37° C. by monitoring absorbance at 405 nm for 15 min with a Flurostar Optima plate reader. […] For controls, the appropriate percentage of solvent was used instead of test compound. The specific activity (ΔA405/min/nM protein), and the percent activity was calculated for each data point. The IC50 was calculated by linear regression of log[test compound] vs. % activity. The enzyme activity of the sulfonamide compound was determined using the Enzyme Kinetics Module of Sigmaplot 8.0 (SPSS Inc.)
The final concentration of human trypsin was 2 nM in a Tris/NaCl buffer (pH 7.5) containing 0.25% (w/v) bovine serum albumin and 20 μM CaCl2. The substrate used was Pefachrome Try.

[2] = molecular target: T1, human thrombin (factor IIa, fIIa) (Homo sapiens, UniProt P00734); assay: Inhibition of serine protease activity, thrombin, chromogenic substrate Pefachrome Th; assay type: biochemical; conditions: 2 nM human thrombin, 300 μM substrate, pH 8.3
T1 construct: purchased Haematologic Technologies Inc. (Essex Junction, Vt.)
Description: as §1
The final concentration of human thrombin was 2 nM in a Tris/NaCl buffer (pH 8.3) containing 0.125% (w/v) bovine serum albumin. The substrate used was Pefachrome Th.

[3] = molecular target: T2, human Factor Xa (fXa) (Homo sapiens, UniProt P00742); assay: Inhibition of serine protease activity, factor Xa, chromogenic substrate Pefachrome Xa; assay type: biochemical; conditions: 2 nM human Factor Xa, 300 μM substrate, pH 7.5
T2 construct: purchased Haematologic Technologies Inc. (Essex Junction, Vt.)
Description: as §1
The final concentration of human Factor Xa was 2 nM in a Tris/NaCl buffer (pH 7.5) containing 0.25% (w/v) polyethylene glycol (MW 8000). The substrate employed was Pefachrome Xa.

[4] = tested on: platelets (platelet rich plasma); assay: Inhibition of platelet aggregation in platelet rich plasma (Chrono-log aggregometer); assay type: cell-based; conditions: human PRP; for inhibition at 250 µM: compound concentration 250 μM; for inhibition at 100 µM: compound concentration 100 μM
Description: Platelet poor plasma (PPP) was obtained by centrifuging the remainder of the sample after the platelets were removed at 800×g for about 10 minutes. The PRP was adjusted to a count of 280×10^9/L using a mixture of PRP and PPP. The platelets (200 μL) were incubated with the test compounds (25 μL) adjusted to various concentrations ([…]) for about 30 minutes at room temperature (approximate final platelet count in the incubation mixture of 250×10^9/L). The samples were incubated for about 3 minutes at about 37° C., and then transferred to the mixing wells of a Chrono-log 4 channel aggregometer (Chrono-log Corp., Havertown, Pa.). After baselines were established, the agonist (25 μL of 40 μM ADP (Sigma, St. Louis, Mo.) or 25 μL of 50 μg/mL and 10 μg/mL collagen (Helena Laboratories, Beaumont, Tex.) or 25 μL of 120 μM thrombin receptor activating peptide (TRAP) (Sigma)) was then added. Aggregation was monitored for 5 minutes at 37° C. with stirring (1000 rpm). The amplitude and slope of each tracing were calculated to determine the amount of aggregation. Control samples were performed using only solvent. The % reduction in aggregation was calculated for each sample compared to the proper solvent control.

[5] = tested on: platelets (platelet rich plasma); assay: as above; assay type: cell-based; conditions: compound concentration 500 μM, human PRP
[6] = agonist ADP 4 μM, read-out: % Reduction in Aggregation, ADP (4 μM)
[7] = agonist TRAP 12 μM, read-out: % Reduction in Aggregation, TRAP (12 μM)
[8] = agonist collagen 1 μg/mL, read-out: % Reduction in Aggregation, Collagen (1 μg/mL)
[9] = agonist collagen 5 μg/mL, read-out: % Reduction in Aggregation, Collagen (5 μg/mL)

T2 sequence (P00742 235-488 limits assumed): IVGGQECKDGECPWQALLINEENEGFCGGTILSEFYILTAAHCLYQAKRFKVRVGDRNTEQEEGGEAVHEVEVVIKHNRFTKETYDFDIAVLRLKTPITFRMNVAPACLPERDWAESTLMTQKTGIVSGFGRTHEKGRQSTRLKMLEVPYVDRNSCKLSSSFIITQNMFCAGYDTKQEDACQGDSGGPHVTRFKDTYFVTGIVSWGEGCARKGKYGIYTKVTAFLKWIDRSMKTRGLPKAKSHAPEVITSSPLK
T2 sequence (P00742 41-179 partner limits assumed): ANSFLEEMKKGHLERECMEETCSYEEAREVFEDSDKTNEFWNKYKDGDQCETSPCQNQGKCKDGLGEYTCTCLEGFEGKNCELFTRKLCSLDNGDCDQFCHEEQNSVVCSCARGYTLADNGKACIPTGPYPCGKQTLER

| SMILES | IC50 [1] [µM] | IC50 [2] [µM] | IC50 [3] [µM] | inhibition at 250 µM [4, 6] [%] | inhibition at 250 µM [4, 7] [%] | inhibition at 250 µM [4, 8] [%] | inhibition at 250 µM [4, 9] [%] | other results |
| --- | --- | --- | --- | --- | --- | --- | --- | --- |
| Cc1ncc(CO)c(CNc2cccc(-c3ccccc3S(N)(=O)=O)c2)c1O [Compound 32, 3′-[(3-Hydroxy-5-hydroxymethyl-2-methyl-pyridin-4-ylmethyl)-amino]-biphenyl-2-sulfoniamide] | > 1000 | > 1000 | – | – | – | – | – | – |
| Cc1ncc(CNc2ccc(-c3ccccc3S(N)(=O)=O)cc2)c(CO)c1OCc1cccc(C(=N)N)c1 [Compound 14] | 12 | 862 | 15 | 10 | 9 | 15 | 5 | – |
| Cc1ncc(CNc2ccc(-c3ccccc3S(N)(=O)=O)cn2)c(CO)c1OCc1cccc(C(=N)N)c1 [Compound 16] | 11 | > 1000 | 11 | 3 | 1.3 | 14 | 0 | – |
| Cc1ncc(CNC(=O)c2ccc(-c3ccccc3S(N)(=O)=O)cc2)c(CO)c1OCc1cccc(C(=N)N)c1 [Compound 23] | 24 | 97 | 5 | – | – | – | – | – |
| Cc1ncc(CO)c(CNc2cccc(-c3ccccc3S(N)(=O)=O)c2)c1OCc1ccc(C(=N)N)cc1 [Compound 28, 4-{5-Hydroxymethyl-2-methyl-4-[(2′-sulfamoyl-biphenyl-3-ylamino)-methyl]-pyridin-3-yloxymethyl}-benzamidine] | 3 | 476 | 17 | 26 | 11 | 10 | 15 | – |
| Cc1ncc(CO)c(CNc2ccc(-c3ccccc3S(N)(=O)=O)cc2F)c1OCc1ccc(C(=N)N)cc1 [Compound 30, 4-{4-[(3-Fluoro-2′-sulfamoyl-biphenyl-4-ylamino)-methyl]-5-hydroxymethyl-2-methyl-pyridin-3-yloxymethyl}-benzamidine] | 4 | 171 | 18 | – | – | – | – | inhibition at 100 µM [4, 6]: 23%; inhibition at 100 µM [4, 7]: 57%; inhibition at 100 µM [4, 8]: 57%; inhibition at 100 µM [4, 9]: 19% |
| Cc1ncc(CO)c(CNc2ccc(-c3ccccc3S(N)(=O)=O)cc2)c1OCc1cccc(C(=N)N)c1 [Compound 25, 3-{5-Hydroxymethyl-2-methyl-4-[(2′-sulfamoyl-biphenyl-4-ylamino)-methyl]-pyridin-3-yloxymethyl}-benzamidine] | 15 | > 1000 | 4 | – | – | – | – | – |
| Cc1ncc(CNc2ccc(C(=N)N)cc2)c(CO)c1O [Compound 33, reference compound] | 18 | 300 | 105 | – | – | – | – | inhibition at 500 µM [5, 6]: 4%; inhibition at 500 µM [5, 7]: 1%; inhibition at 500 µM [5, 9]: 15%; inhibition at 500 µM ([4]; agonist collagen 1 μg/mL, compound concentration 500 μM, read-out: % Reduction in Aggregation, Collagen (1 μg/mL)): 5% |
| Cc1ncc(CNc2ccc(-c3ccc(C(=N)N)cc3)cc2)c(CO)c1O [Compound 34, reference compound] | 4 | > 1000 | 29 | 63 | 93 | 41 | 1 | – |
| Cc1ncc(CNc2ccc(-c3ccccc3S(N)(=O)=O)cn2)c(CO)c1O [Compound 31, 2-{6-[(5-Hydroxy-4-hydroxymethyl-6-methyl-pyridin-3-ylmethyl)-amino]-pyridin-3-yl}-benzenesulfonamide] | > 1000 | > 1000 | > 1000 | – | – | – | – | – |

Continued, in another order:

| IC50 [1] [µM] | IC50 [2] [µM] | IC50 [3] [µM] | SMILES | inhibition at 250 µM [4, 6] [%] | inhibition at 250 µM [4, 7] [%] | inhibition at 250 µM [4, 8] [%] | inhibition at 250 µM [4, 9] [%] | other results |
| --- | --- | --- | --- | --- | --- | --- | --- | --- |
| > 1000 | > 1000 | > 1000 | Cc1ncc(CO)c(CNc2ccc(-c3ccccc3S(N)(=O)=O)cc2)c1O [Compound 8] | – | – | – | – | – |
| > 1000 | > 1000 | 326 | Cc1ncc(CNc2cccc(-c3ccccc3S(N)(=O)=O)c2)c(CO)c1O [Compound 21, 3′-[(5-Hydroxy-4-hydroxymethyl-6-methyl-pyridin-3-ylmethyl)-amino]-biphenyl-2-sulfonic acid amide] | 14 | 0 | 4 | 0 | – |
| > 1000 | > 1000 | 362 | Cc1ncc(CNC(=O)c2ccc(-c3ccccc3S(=O)(=O)NC(C)(C)C)cc2)c(CO)c1O [Compound 5, 2′-tert-Butylsulfamoyl-biphenyl-4-carboxylic acid (5-hydroxy-4-hydroxymethyl-6-methyl-pyridin-3-ylmethyl)-amide] | – | – | – | – | – |
| > 1000 | > 1000 | > 1000 | Cc1ncc(CNc2ccc(-c3ccccc3S(N)(=O)=O)cc2)c(CO)c1O [Compound 3, 4′-[(5-Hydroxy-4-hydroxymethyl-6-methyl-pyridin-3-ylmethyl)-amino]-biphenyl-2-sulfonic acid amide] | 0 | 6 | 0 | 5 | – |
| > 1000 | > 1000 | 329 | Cc1ncc(CNc2ccc(-c3ccccc3S(=O)(=O)NC(C)(C)C)cc2)c(CO)c1O [Compound 2, 4′-[(5-Hydroxy-4-hydroxymethyl-6-methyl-pyridin-3-ylmethyl) -amino]-biphenyl-2-sulfonic acid tert-butylamide] | – | – | – | – | – |
| > 1000 | > 1000 | 197 | Cc1ncc(CO)c(CNc2ccc(-c3ccccc3S(=O)(=O)NC(C)(C)C)cc2)c1O [Compound 7, 4′-[(3-Hydroxy-5-hydroxymethyl-2-methyl-pyridin-4-ylmethyl)-amino]-biphenyl-2-sulfonic acid tert-butylamide] | – | – | – | – | – |
| > 1000 | > 1000 | 306 | Cc1ncc(CNC(=O)c2ccc(-c3ccccc3S(N)(=O)=O)cc2)c(CO)c1O [Compound 6, 2′-Sulfamoyl-biphenyl-4-carboxylic acid (5-hydroxy-4-hydroxymethyl-6-methyl-pyridin-3-ylmethyl)-amide] | 0 | 1 | 5 | 0 | – |

Source: patent publication US20070142270A1, “Aryl Sulfonic Pyridoxines as Antiplatelet Agents” (priority 2004, published 2007)
